Data from US11242344B2, “(4-hydroxypyrrolidin-2-yl)-heterocyclic compounds and methods of use thereof” (Genentech, Inc., priority 2017, dated 2022).

Target: NanoLuc VHL fusion protein (Homo sapiens (Human), UniProt P40337)
Assay: VHL HEK-293 BRET Assay (NanoBRET Target Engagement)
Assay type: cell-based
Details: geometric mean where more than one measurement
In short: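 HEK293 cells stably expressing NanoLuc-VHL, 2 h with compound titration and 1 uM final tracer, then Nano-Glo substrate plus extracellular NanoLuc inhibitor. BRET ratio 610/460 nm, background-corrected with no-tracer wells, normalised to DMSO and 10 uM unlabeled VHL antagonist controls; IC50 by four-parameter fit.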

NanoLuc VHL fusion protein, sequence (P40337 whole entry, looked up, the tested form may be a part): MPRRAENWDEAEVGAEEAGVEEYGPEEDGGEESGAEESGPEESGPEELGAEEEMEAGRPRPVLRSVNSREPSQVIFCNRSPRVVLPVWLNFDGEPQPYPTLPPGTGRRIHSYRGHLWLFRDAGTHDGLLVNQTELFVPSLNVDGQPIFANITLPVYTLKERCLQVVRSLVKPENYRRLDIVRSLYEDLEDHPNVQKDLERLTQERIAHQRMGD
NanoLuc VHL fusion protein, sequence (Q15370 whole entry partner, looked up, the tested form may be a part): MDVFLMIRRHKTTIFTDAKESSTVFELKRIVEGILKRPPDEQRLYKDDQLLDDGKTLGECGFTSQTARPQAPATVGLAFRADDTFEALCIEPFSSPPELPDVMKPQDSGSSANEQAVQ
NanoLuc VHL fusion protein, sequence (Q15369 whole entry partner, looked up, the tested form may be a part): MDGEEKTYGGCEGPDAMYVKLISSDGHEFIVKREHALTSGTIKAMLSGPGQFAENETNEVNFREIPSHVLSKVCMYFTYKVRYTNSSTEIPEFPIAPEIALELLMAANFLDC

- IC50: 64.6 µM
SMILES: Cc1ncsc1-c1ccc([C@]2(C)NC(C3C[C@@H](O)CN3C(=O)[C@@H](NC(=O)CCCCCCCCCCNC(=O)c3cc4c(cc3CS(C)(=O)=O)-c3cn(C)c(=O)c5[nH]cc(c35)CN4c3ncc(F)cc3F)C(C)(C)C)=NC2=O)cc1 (single isomer, unassigned) [Example 1005.1]
